Key:
Format in all cases: ADME, organism-based
Conditions in all cases: in vivo
[1] = Cmax in ICR (CD-1) mouse at 20 mg/kg, po via gavage by mass spectrometric method; design: dose 20 mg/kg, route oral
[2] = AUC (0 to t) in ICR (CD-1) mouse at 20 mg/kg, po via gavage by mass spectrometric method
[3] = Tmax in ICR (CD-1) mouse at 20 mg/kg, po via gavage by mass spectrometric method
[4] = Tmax in ICR (CD-1) mouse at […], po via gavage by mass spectrometric method
[5] = AUC (0 to t) in ICR (CD-1) mouse at […], po via gavage by mass spectrometric method
[6] = Cmax in ICR (CD-1) mouse at […], po via gavage by mass spectrometric method

Compound	Cmax [1]	AUC(0-t) [2]	Tmax [3]	Tmax [4]	AUC(0-t) [5]	Cmax [6]
Cc1ccc(NC(=O)c2ccc3c(c2)N(C2CC2)C(C)C(=O)N3C)c(C)c1 (centres undefined)	1780 ng/mL	2660 ng·h/mL	18 min	–	–	–
Cc1ccc2c(c1)CCN2C(=O)c1ccc2c(c1)N(C1CC1)C(C)C(=O)N2C (centres undefined)	335 ng/mL	189 ng·h/mL	15 min	–	–	–
Cc1ccc2c(c1)CCN2C(=O)c1ccc2c(n1)N(C1CC1)C(C)C(=O)N2C (centres undefined)	–	–	–	19.8 min	383 ng·h/mL	189 ng/mL

Source: ChEMBL document CHEMBL4196075, “Structure-based optimization of a series of selective BET inhibitors containing aniline or indoline groups” (Eur J Med Chem, 2018)
